According to PMC9737537, “In Vitro Susceptibility of HIV Isolates with High Growth Capability to Antiretroviral Drugs” (International Journal of Molecular Sciences, 2022):
Where two headings read alike, the source gives them in different places.

Tests used:
Type in all cases: cell-based
[1] = system: HIV isolates with high growth capability; experiment: Antiretroviral drug response (HIV-RNA copies in PHA-PBMC culture, 7 days), pooled HIV isolates; conditions: for suppression of viral yield in vitro: HIV isolates of Figure 5; for susceptibility of isolates / IC90 values relative to Cmin / Cmax: higher growth capability, without any known drug resistance-related mutation
From the text: (§1) The following nucleotide reverse transcriptase inhibitors were used: emtricitabine (Tokyo Chemical Industry, Tokyo, Japan), lamivudine (Tokyo Chemical Industry, Japan), tenofovir (Selleck Biotech, Tokyo Japan), tenofovir alafenamide (Selleck Biotech, Japan), tenofovir disoproxil fumarate (Tokyo Chemical Industry, Japan), and zidovudine (FUJIFILM Wako, Tokyo, Japan). As it was reported that tenofovir and its prodrugs (tenofovir disoproxil fumarate and tenofovir alafenamide) are measurable in plasma, the antiviral activity of these three synthetic drugs were assessed in vitro [25, 36]. In addition, one non-nucleotide reverse transcriptase inhibitor, efavirenz (Tokyo Chemical Industry, Japan); two protease inhibitors, atazanavir (Selleck Biotech, Japan) and lopinavir (Funakoshi Frontiers in Life Science, Tokyo, Japan); and four integrase inhibitors, bictegravir (Selleck Biotech, Japan), dolutegravir (Selleck Biotech, Japan), elvitegravir (EVG, Selleck Biotech, Japan), and raltegravir (Selleck Biotech, Japan) were analyzed. Representative HIV isolates and a laboratory strain of HIVpNL4-3 were screened for antiretroviral drugs. Briefly, PHA-PBMCs (1.5 × 10^6 cells) were pelleted at 1000 g for 5 min, resuspended with an HIV preparation (10^6 copies) in 100 µL volume, and incubated at 37 °C for 1 h. To remove unbound and non-infectious viruses, the cells were washed twice with RPMI1640 medium and then cultured in different concentrations of antiretroviral compounds (1 mL). The culture was carried out for 7 days, as described above, for growth capability assessment. All procedures were performed in triplicate.
To determine the susceptibility of HIV isolates with high growth capability to synthetic antiretroviral compounds, we used the in vitro susceptibility of the virus (IC90) and pharmacokinetics of an antiretroviral agent (compared to reported Cmin and Cmax).
HIV-RNA in the culture medium (140 µL) was extracted using a QIAamp Viral RNA Mini Kit (QIAGEN KK-Japan, Tokyo, Japan) and subjected to quantitative reverse transcription polymerase chain reaction (qRT-PCR). The amount of HIV-RNA was assayed using a Luna Universal One-Step qRT–PCR kit (New England Biolabs Japan, Tokyo, Japan) and forward (GagB-1F, 5′-[…]-3′, HXB2 position: 1359–1388) and reverse (GagB-1R, 5′-[…]-3′, 1500–1474) primers. The PCR signal was assessed by comparison with a standard curve (encompassing 10^2–10^8 copies/reaction of the in vitro-transcribed RNA transcripts).
The IC50 was calculated using a nonlinear regression curve fit of the dose response curves of each transformed drug concentration and normalized viral load (copies/mL) using GraphPad Prism software (version 8.0). The IC90 was determine using the IC50 and Hill slope factor from the curve fit in the online GraphPad calculator (https://www.graphpad.com/quickcalcs/ECanything1/, accessed on 1 October 2022) for effective concentration. The results are expressed as the mean IC90 of three values obtained in triplicate for each isolate.

HIV isolate DR1509-397 = experiment: Antiretroviral drug response in PHA-PBMC culture, isolate DR1509-397
Experimental: as §1, with “The activity of 13 synthetic antiretroviral compounds at concentrations ranging from 0.001 to 20 μM was evaluated against HIV isolates with diverse growth capabilities and without any known drug resistance-related mutation. The” for “The”, “Briefly, PHA-PBMCs (1.5 × 10^6 cells) were pelleted at 1000 g for 5 min, resuspended with an HIV preparation (10^6 copies) in 100 µL volume, and incubated at 37 °C for 1 h. To remove unbound and non-infectious viruses, the cells were washed twice with RPMI1640 medium and then cultured in different concentrations of antiretroviral compounds (1 mL). The culture was carried out for 7 days, as described above, for growth capability assessment. All procedures were performed in triplicate.” left out
HIV-RNA in the culture medium (140 µL) was extracted using a QIAamp Viral RNA Mini Kit (QIAGEN KK-Japan, Tokyo, Japan) and subjected to quantitative reverse transcription polymerase chain reaction (qRT-PCR). […] The PCR signal was assessed by comparison with a standard curve (encompassing 10^2–10^8 copies/reaction of the in vitro-transcribed RNA transcripts).
The IC50 was calculated using a nonlinear regression curve fit of the dose response curves of each transformed drug concentration and normalized viral load (copies/mL) using GraphPad Prism software (version 8.0). […] The results are expressed as the mean IC90 of three values obtained in triplicate for each isolate.

HIV isolate DR1606-521 = experiment: Antiretroviral drug response in PHA-PBMC culture, isolate DR1606-521
Experimental: as §1, with “The activity of 13 synthetic antiretroviral compounds at concentrations ranging from 0.001 to 20 μM was evaluated against HIV isolates with diverse growth capabilities and without any known drug resistance-related mutation. The” for “The”, “Briefly, PHA-PBMCs (1.5 × 10^6 cells) were pelleted at 1000 g for 5 min, resuspended with an HIV preparation (10^6 copies) in 100 µL volume, and incubated at 37 °C for 1 h. To remove unbound and non-infectious viruses, the cells were washed twice with RPMI1640 medium and then cultured in different concentrations of antiretroviral compounds (1 mL). The culture was carried out for 7 days, as described above, for growth capability assessment. All procedures were performed in triplicate.” left out

HIV isolate DR1606-479 = experiment: Antiretroviral drug response in PHA-PBMC culture, isolate DR1606-479; conditions: Human immunodeficiency virus 1, 168 h, isolate with drug resistance-related mutation, 7 days
Experimental: as §1, with “The activity of 13 synthetic antiretroviral compounds at concentrations ranging from 0.001 to 20 μM was evaluated against HIV isolates with diverse growth capabilities and without any known drug resistance-related mutation. The” for “The”, “Briefly, PHA-PBMCs (1.5 × 10^6 cells) were pelleted at 1000 g for 5 min, resuspended with an HIV preparation (10^6 copies) in 100 µL volume, and incubated at 37 °C for 1 h. To remove unbound and non-infectious viruses, the cells were washed twice with RPMI1640 medium and then cultured in different concentrations of antiretroviral compounds (1 mL). The culture was carried out for 7 days, as described above, for growth capability assessment. All procedures were performed in triplicate.” left out

HIV isolate S1506-064 = experiment: Antiretroviral drug response in PHA-PBMC culture, isolate S1506-064; conditions: Human immunodeficiency virus 1, 168 h, high growth capability, no known mutation against tenofovir, 7 days
Experimental: as §1, with “The activity of 13 synthetic antiretroviral compounds at concentrations ranging from 0.001 to 20 μM was evaluated against HIV isolates with diverse growth capabilities and without any known drug resistance-related mutation. The” for “The”, “Briefly, PHA-PBMCs (1.5 × 10^6 cells) were pelleted at 1000 g for 5 min, resuspended with an HIV preparation (10^6 copies) in 100 µL volume, and incubated at 37 °C for 1 h. To remove unbound and non-infectious viruses, the cells were washed twice with RPMI1640 medium and then cultured in different concentrations of antiretroviral compounds (1 mL). The culture was carried out for 7 days, as described above, for growth capability assessment. All procedures were performed in triplicate.” left out

HIV isolate DR1510-726 = experiment: Antiretroviral drug response in PHA-PBMC culture, isolate DR1510-726; conditions: Human immunodeficiency virus 1, 168 h, isolate with drug resistance-related mutation, 7 days
Experimental: as §1, with “The activity of 13 synthetic antiretroviral compounds at concentrations ranging from 0.001 to 20 μM was evaluated against HIV isolates with diverse growth capabilities and without any known drug resistance-related mutation. The” for “The”, “Briefly, PHA-PBMCs (1.5 × 10^6 cells) were pelleted at 1000 g for 5 min, resuspended with an HIV preparation (10^6 copies) in 100 µL volume, and incubated at 37 °C for 1 h. To remove unbound and non-infectious viruses, the cells were washed twice with RPMI1640 medium and then cultured in different concentrations of antiretroviral compounds (1 mL). The culture was carried out for 7 days, as described above, for growth capability assessment. All procedures were performed in triplicate.” left out

HIV isolate DR1605-400 = experiment: Antiretroviral drug response in PHA-PBMC culture, isolate DR1605-400; conditions: Human immunodeficiency virus 1, 168 h, high growth capability, no known drug resistance-related mutation, 7 days
Experimental: as §1, with “The activity of 13 synthetic antiretroviral compounds at concentrations ranging from 0.001 to 20 μM was evaluated against HIV isolates with diverse growth capabilities and without any known drug resistance-related mutation. The” for “The”, “Briefly, PHA-PBMCs (1.5 × 10^6 cells) were pelleted at 1000 g for 5 min, resuspended with an HIV preparation (10^6 copies) in 100 µL volume, and incubated at 37 °C for 1 h. To remove unbound and non-infectious viruses, the cells were washed twice with RPMI1640 medium and then cultured in different concentrations of antiretroviral compounds (1 mL). The culture was carried out for 7 days, as described above, for growth capability assessment. All procedures were performed in triplicate.” left out

[2] = Human immunodeficiency virus 1, lowest among the 13 compounds, isolate not specified, read-out: lowest IC90 values
[3] = Human immunodeficiency virus 1, read-out: 90% inhibitory concentration (IC90)

## COC(=O)N[C@H](C(=O)N[C@@H](Cc1ccccc1)[C@@H](O)CN(Cc1ccc(-c2ccccn2)cc1)NC(=O)[C@@H](NC(=O)OC)C(C)(C)C)C(C)(C)C [atazanavir]
[1]
  suppression of viral yield in vitro: remarkably suppressed the viral yield
  susceptibility of isolates: retained susceptibility with lower IC90 values
[1]; [2]
  IC90: 1.3 ± 1.12 nM

## O=C(NCc1c(F)cc(F)cc1F)c1cn2c(c(O)c1=O)C(=O)N1[C@H]3CC[C@H](C3)O[C@@H]1C2 [bictegravir]
[1]
  susceptibility of isolates: retained susceptibility with lower IC90 values

## C[C@@H]1CCO[C@H]2Cn3cc(C(=O)NCc4ccc(F)cc4F)c(=O)c(O)c3C(=O)N12 [dolutegravir]
[1]
  suppression of viral yield in vitro: remarkably suppressed the viral yield
  susceptibility of isolates: retained susceptibility with lower IC90 values
[1]; [2]
  IC90: 1.1 ± 0.72 nM

## O=C1Nc2ccc(Cl)cc2[C@@](C#CC2CC2)(C(F)(F)F)O1 [efavirenz]
[1]; [3]
  IC90: 3650 ± 770 nM
[1]
  IC90 values relative to Cmin / Cmax: close to or above Cmin
[1]; isolates both with and without any known drug resistance-related mutation (Figure 5)
  IC90 relative to Cmin: above Cmin

## COc1cc2c(cc1Cc1cccc(Cl)c1F)c(=O)c(C(=O)O)cn2[C@H](CO)C(C)C [elvitegravir]
[1]
  susceptibility of isolates: retained susceptibility with lower IC90 values

## Nc1nc(=O)n([C@@H]2CS[C@H](CO)O2)cc1F [emtricitabine]
[1]; [3]
  IC90: 680 ± 370 nM
[1]
  IC90 values relative to Cmin / Cmax: close to or above Cmin

## Nc1ccn([C@@H]2CS[C@H](CO)O2)c(=O)n1 [lamivudine]
[1]; [3]
  IC90: 6830 ± 3960 nM
[1]
  IC90 values relative to Cmin / Cmax: close to or above Cmin

## Cc1cccc(C)c1OCC(=O)N[C@@H](Cc1ccccc1)[C@@H](O)C[C@H](Cc1ccccc1)NC(=O)[C@H](C(C)C)N1CCCNC1=O [lopinavir]
[1]
  susceptibility of isolates: retained susceptibility with lower IC90 values

## Cc1nnc(C(=O)NC(C)(C)c2nc(C(=O)NCc3ccc(F)cc3)c(O)c(=O)n2C)o1 [raltegravir]
[1]
  susceptibility of isolates: retained susceptibility with lower IC90 values

## CC(C)OC(=O)[C@H](C)N[P@](=O)(CO[C@H](C)Cn1cnc2c(N)ncnc21)Oc1ccccc1 [tenofovir alafenamide]
[1]; [2]
  IC90: 0.3 ± 0.23 nM
[1]
  susceptibility of isolates: retained susceptibility with lower IC90 values
[1]; isolates with drug resistance-related mutations in tenofovir disoproxil fumarate
  activity against resistant isolates: active

## C[C@H](Cn1cnc2c(N)ncnc21)OCP(=O)(O)O [tenofovir]
HIV isolate DR1509-397; Human immunodeficiency virus 1, 168 h, high growth capability, no known drug resistance-related mutation, PHA-PBMC, 7 days, read-out: IC90
  IC90: 2000 ± 400 nM
HIV isolate DR1509-397; Human immunodeficiency virus 1, screened using two additional blood sources (three different blood sources, Figure 2B), read-out: mean IC90
  IC90: 1900 ± 40 nM
HIV isolate DR1509-397; tenofovir at 1 μM (close to Cmax)
  virus production in the presence of drug: hardly showed the decrease in virus production
HIV isolate DR1606-521; Human immunodeficiency virus 1, 168 h, isolate with drug resistance-related mutation, PHA-PBMC, 7 days, read-out: IC90
  IC90: 8.3 ± 0.12 µM
HIV isolate DR1606-521; Human immunodeficiency virus 1, tenofovir-resistant isolate, above Cmax (Figure 4), read-out: concentration required to fully suppress the number of viral copies (printed as IC90)
  IC90: 10 µM
[1]; [3]
  IC90: 2050 ± 400 nM
[1]
  IC90 values relative to Cmin / Cmax: above Cmax
HIV isolate DR1606-479
  IC90: 8.5 ± 0.1 µM
HIV isolate S1506-064
  IC90: 2800 ± 470 nM
HIV isolate DR1510-726
  IC90: 7.7 ± 0.06 µM
HIV isolate DR1605-400
  IC90: 1400 ± 870 nM

## Cc1cn([C@H]2C[C@H](N=[N+]=[N-])[C@@H](CO)O2)c(=O)[nH]c1=O [zidovudine]
[1]; [2]
  IC90: 1.5 ± 1.11 nM
[1]
  susceptibility of isolates: retained susceptibility with lower IC90 values
